Assays:
[1] = system: histamine and carbachol-stimulated gastric acid secretion; assay: Inhibition of gastric acid secretion of the conscious male rat, oral administration; format: in vivo, rat (Sprague-Dawley); conditions: sodium salt, read-out: % inhibition of gastric acid secretion between 3-5 hours after administration; for inhibition in vivo at 10 µmol/kg: 10 μmole/kg; for inhibition in vivo at 40 µmol/kg: 40 μmole/kg
Procedure: Male rats (the Sprague-Dawley strain) were used in this experiment. OMEPRAZOLE sodium salt or LANSOPRAZOLE sodium salt (20 mg) was suspended in 10 ml of 0.1 N NaHCO3. 40 mg of each of the sodium salts of Compound 1, Compound 2, Compound 3, Compound 4, Compound 6 Compound 9, Compound 12, mixture (1:1) of Compound 16 and 17, mixture (1:1) of Compound 18 and 19, mixture (1:1) of Compound 20 and 21, mixture (1:1) of Compound 22 and 23, Compound 27, mixture (1:1) of Compound 34 and 35, and Compound 36 were dissolved in 10 ml of 50 mM sodium phosphate buffer, pH 7.4. The doses administered to the rats were as follows (μmole per kg body weight of the rat): OMEPRAZOLE (10 μmole/kg), LANSOPRAZOLE (10 μmole/kg), Compound 120 μmole/kg, Compound 2 40 μmole/kg, Compound 320 μmole/kg, Compound 420 μmole/kg, Compound 620 μmole/kg, Compound 940 μmole/kg, Compound 1240 μmole/kg, mixture (1:1) of Compound 16 and 17 40 μmole/kg, mixture (1:1) of Compound 18 and 19 40 μmole/kg, mixture (1:1) of Compound 20 and 21 40 μmole/kg, mixture (1:1) of Compound 22 and 23 40 μmole/kg, Compound 27 40 μmole/kg, mixture (1:1) of Compound 34 and 35 40 μmole/kg, and Compound 3640 μmole/kg. These drug solutions were orally administered.
(§1) 3 hours after administration the abdomen of the rat was incised and the pylorus was ligated under light ether anethesia. Histamine (30 mg/kg) and carbachol (30 μg/kg) were subcutaneously injected for acid stimulation. Immediately the abdomen was closed. Two hours later, the esophagus was ligated and the stomach was removed. The gastric juice was collected and acid output was quantified by titration using 0.1 N NaOH solution. As a control experiment, 1 ml of 50 mM phosphate buffer (pH 7.4) solution was orally administrated without any prodrug or proton pump inhibitory drug. Acid output was quantified by same method as described above, showing maximum histamine and carbachol-stimulated gastric acid secretion. Percentage inhibition was calculated from the fractional responses elicited by the test compound and a control experiment.

[2] = Stability in plasma at 37° C. (gradient HPLC-UV), human plasma; format: in vitro ADME
Procedure: (§2) Exemplary test compounds (prodrugs) of the invention were incubated in plasma at 37° C., and the concentration of the compounds and also of the corresponding proton pump inhibitor compounds (PPI) were determined by a gradient HPLC-UV method. Although the half-lives of test compounds in plasma varies depending on their structure, nevertheless it is apparent that in plasma the compounds of the invention are converted into the corresponding proton pump inhibitor at a rate faster than the hydrolysis rate of the compound at neutral or near neutral pH.

[3] = Stability in plasma at 37° C. (gradient HPLC-UV), rat plasma; format: in vitro ADME
Procedure: as §2

[4] = Solubility in phosphate buffered saline buffer of pH 7.4 at 37° C.; format: physicochemical; conditions: aqueous buffer, sodium salts, phosphate buffered saline buffer pH 7.4, read-out: Solubility at 37° C. Conc.
Procedure: The solubility of the sodium salts of certain exemplary compounds of the present invention in a phosphate buffered saline buffer of pH 7.4 (50 mM sodium phosphate, 10 mM KCl, 0.1 M NaCl) and also in a more acidic Britton Robinson buffer of pH 3 (40 mM acetic acid, 40 mM phosphoric acid, 40 mM boric acid, 36 mM NaOH, and 19.6 mg/ml KCl) was also evaluated. […] The tested compounds were much less soluble little in the Britton Robinson buffer of pH 3, but still more soluble than the prior art compounds (a) through (f). This is understandable in view of the fact that in the buffer of pH 7.4 the compounds of the invention form a sodium salt, whereas in the buffer of pH 3 the compounds are less soluble free carboxylic acids. Thus, a solution of a sodium or other pharmaceutically acceptable salt of the compounds of the invention, or stated in an other way the compounds of the invention at pH 7 or above are highly soluble and therefore suitable for administration by intravenous injection.

gastric acid secretion = assay: Inhibition of gastric acid secretion in rat, intravenous administration; format: in vivo; conditions: 5 μmole/kg
Procedure: as §1
Inhibition of gastric acid secretion after intravenous administration of compounds of the invention was also examined. Lansoprazole sodium salt (20 mg) was dissolved in 40% hydroxypropyl-beta-cyclodextrin. The compounds of the invention used in this experiment were dissolved in phosphate buffered saline solution of pH 7.4. Each compound was injected intravenously at a dose of 5 μmole/kg or 10 μmole/kg (μmole per kg body weight of rat) as indicated in Table 4 below. Between 2 to 4 hours after injection gastric juice was collected, and the percentage of inhibition was determined as described above.

SMILES	half-life [2] [min]	half-life [3] [min]	also measured
COc1ccc2[nH]c([S+]([O-])Cc3ncc(C)c(OC)c3C)nc2c1 (centres unmarked) [OMEPRAZOLE, 5-methoxy-2-(4-methoxy-3,5-dimethyl-pyridin-2-yl-methanesulfinyl)-1H-benzimidazole, reference compound]	–	–	inhibition in vivo at 10 µmol/kg [1]: 54.6 ± 10.4%
CCC(Oc1ccc(S(=O)(=O)n2c([S+]([O-])Cc3nccc(OCC(F)(F)F)c3C)nc3ccccc32)cc1)C(=O)[O-].[Na+] (centres unmarked) [Compound 4 Na salt, 2-(4-{2-[3-methyl-4-(2,2,2-trifluoro-ethoxy)-pyridin-2-ylmethanesulfinyl]-benzimidazole-1-sulfonyl}phenoxy)butyric acid sodium salt]	60	98	–
Cc1cc(OCC(=O)NCCCCCC(=O)[O-])cc(C)c1S(=O)(=O)n1c([S+]([O-])Cc2nccc(OCC(F)(F)F)c2C)nc2ccccc21.[Na+] (centres unmarked) [Compound 6, 6-[2-(3,5-Dimethyl-4-{2-[3-methyl-4-(2,2,2-trifluoro-ethoxy)-pyridin-2-ylmethanesulfinyl]-benzimidazole-1-sulfonyl}-phenoxy)acetylamino]hexanoic acid sodium salt]	60	52	inhibition in vivo at 20 µmol/kg ([1]; 20 μmole/kg): 53.5 ± 18.3%
Cc1c(OCC(F)(F)F)ccnc1C[S+]([O-])c1nc2ccccc2n1S(=O)(=O)c1ccc(OCC(=O)NCCCC(=O)[O-])cc1C(C)C.[Na+] (centres unmarked) [Compound 11]	14	53	–
Cc1cc(OCC(=O)[O-])cc(C(C)C)c1S(=O)(=O)n1c([S+]([O-])Cc2nccc(OCC(F)(F)F)c2C)nc2ccccc21.[Na+] (centres unmarked) [Compound 39, 4-[2-{3-Methyl-4-(2,2,2-trifluoroethoxy)pyridin-2-yl-methanesulfinyl}-benzimidazole-1-sulfonyl]-3-isopropyl-5-methylphenoxyacetic acid sodium salt]	–	317	–
COCCCOc1ccnc(C[S+]([O-])c2nc3ccccc3n2S(=O)(=O)c2ccc(OCC(=O)[O-])cc2)c1C.[Na+] (centres unmarked) [Compound 8, (4-{2-[4-(3-Methoxy-propoxy)-3-methyl-pyridin-2-ylmethanesulfinyl]-benzimidazole-1-sulfonyl}-phenoxy)-acetic acid sodium salt]	–	–	solubility [4]: > 30 mg/mL
Cc1ccc(C(=O)[O-])cc1S(=O)(=O)n1c([S+]([O-])Cc2nccc(OCC(F)(F)F)c2C)nc2ccccc21.[Na+] (centres unmarked) [Compound 27, 3-{2-[3-Methyl-4-(2,2,2-trifluoro-ethoxy)-pyridin-2-yl-methanesulfinyl]-benzimidazole-1-sulfonyl}-4-methylbenzoic acid sodium salt]	–	14	inhibition in vivo at 40 µmol/kg [1]: 96.7 ± 1.3%
COc1ccc2nc([S+]([O-])Cc3ncc(C)c(OC)c3C)n(S(=O)(=O)c3ccc(OCC(=O)[O-])cc3)c2c1.[Na+] (centres unmarked) [Compound 10, {4-[6-methoxy-2-(4-methoxy-3,5-dimethyl-pyridin-2-ylmethanesulfinyl)-benzimidazole-1-sulfonyl]-phenoxy}-acetic acid sodium salt]	–	–	% inhibition of gastric acid secretion between 2-4 hours after i.v. administration (gastric acid secretion): 18.3 ± 11.9%
Cc1c(OCC(F)(F)F)ccnc1C[S+]([O-])c1nc2ccccc2[nH]1 (centres unmarked) [LANSOPRAZOLE, 2-[3-methyl-4-(2,2,2-trifluoroethoxy)pyridin-2-yl-methanesulfinyl]-1H-benzimidazole, reference compound]	–	–	inhibition in vivo at 10 µmol/kg [1]: 67.6 ± 14.7%; % inhibition of gastric acid secretion between 2-4 hours after i.v. administration (gastric acid secretion): 91.5 ± 5.0%
COc1ccc(S(=O)(=O)n2c([S+]([O-])Cc3nccc(OCC(F)(F)F)c3C)nc3ccccc32)cc1CCC(=O)[O-].[Na+] (centres unmarked) [Compound 36, 3-[2-Methoxy-5-{2-(3-methyl-4-(2,2,2-trifluoroethoxy)pyridin-2-yl-methanesulfinyl)-benzimidazole-1-sulfonyl}phenyl]propionic acid sodium salt]	–	19	inhibition in vivo at 40 µmol/kg [1]: 89.8 ± 6.8%

— patent US6897227B2, “Prodrugs of proton pump inhibitors” (Winston Pharmaceuticals, Inc., priority 2002, dated 2005)
